Experimental data published in ChEMBL document CHEMBL5214892, “Antitumor potential of the protein phosphatase inhibitor, cantharidin, and selected derivatives” (Bioorg Med Chem, 2021).
In brackets after ≈: the same amount, converted by molar mass.

Legend:
[1] = species: Homo sapiens; test: Anticancer activity against human Liver cancer cell assessed as cell growth inhibition; type: functional
[2] = test system: SMMC-7721; test: Anticancer activity against human SMMC-7721 cell assessed as cell growth inhibition measured after 24 to 48 hrs by SRB colorimetry assay; type: functional, cell-based
[3] = test system: Bel-7402; test: Anticancer activity against human Bel-7402 cell assessed as cell growth inhibition measured after 24 to 48 hrs by SRB colorimetry assay; type: functional, cell-based
[4] = Inhibition of PP1 (unknown origin); design: species or system Homo sapiens
[5] = Inhibition of bovine brain PP2A assessed as dephosphorylation of substrate using P32 labelled peptide DLDVPIPGRFDRRVSVAAE as substrate by radiometric analysis; design: species or system Bos taurus
[6] = test system: HepG2; test: Anticancer activity against human HepG2 cells assessed as cell growth inhibition measured after 72 hrs by MTT assay; type: functional, cell-based; conditions: HepG2, 72 h
[7] = test system: HL-60; test: Anticancer activity against human HL-60 cells assessed as cell growth inhibition measured after 72 hrs by MTT assay; type: functional, cell-based; conditions: HL-60, 72 h
[8] = test system: KB 3-1; test: Anticancer activity against human KB 3-1 cells assessed as cell growth inhibition measured after 72 hrs by MTT assay; type: functional, cell-based; conditions: KB 3-1, 72 h
[9] = test system: Hep 3B2; test: Anticancer activity against human Hep3B cells assessed as cell growth inhibition incubated for 48 hrs by MTS assay; type: functional, cell-based
[10] = Cytotoxicity against human Bone marrow cell assessed as cell growth inhibition by MTS assay; type: toxicity, cell-based; conditions: bone marrow cells
[11] = Inhibition of rabbit liver PP2C assessed as dephosphorylation of substrate using P32 labelled peptide as substrate by radiometric analysis; design: species or system Oryctolagus cuniculus
[12] = Toxicity in mouse assessed as lethal dose administered intraperitoneally; conditions: in vivo, route ip
[13] = Anticancer activity against human oral cancer cell assessed as cell growth inhibition; type: functional, cell-based
[14] = Anticancer activity against human leukaemia cell line assessed as cell growth inhibition; type: functional, cell-based
[15] = test system: HepG2; test: Anticancer activity against human HepG2 cells assessed as cell growth inhibition incubated for 2 days by MTT assay; type: functional, cell-based; conditions: HepG2, 48 h
[16] = test system: Colon cancer cell line; test: Anticancer activity against human Colon carcinoma cell assessed as cell growth inhibition; type: functional, cell-based
[17] = Inhibition of PP (unknown origin); design: species or system Homo sapiens
[18] = test system: Lung cancer cell line; test: Anticancer activity against human Lung cancer cell line assessed as cell growth inhibition; type: functional, cell-based
[19] = test system: Hep 3B2; test: Anticancer activity against human Hep3B cells assessed as cell growth inhibition incubated for 48 hrs by MTT assay; type: functional, cell-based
[20] = test system: HT-29; test: Anticancer activity against human HT-29 cells assessed as cell growth inhibition measured after 72 hrs by MTT assay; type: functional, cell-based; conditions: HT-29, 72 h
[21] = test system: MCF7; test: Anticancer activity against human MCF7 cells assessed as cell growth inhibition measured after 72 hrs by MTT assay; type: functional, cell-based; conditions: MCF7, 72 h
[22] = test system: A-431; test: Anticancer activity against human A-431 cells assessed as cell growth inhibition measured after 72 hrs by MTT assay; type: functional, cell-based; conditions: A-431, 72 h
[23] = test system: DU-145; test: Anticancer activity against human DU-145 cells assessed as cell growth inhibition measured after 72 hrs by MTT assay; type: functional, cell-based; conditions: DU-145, 72 h
[24] = test system: BE(2)-C; test: Anticancer activity against human BE2C cells assessed as cell growth inhibition measured after 72 hrs by MTT assay; type: functional, cell-based
[25] = test system: MIA PaCa-2; test: Anticancer activity against human MIA PaCa-2 cells assessed as cell growth inhibition measured after 72 hrs by MTT assay; type: functional, cell-based; conditions: MIA PaCa-2, 72 h
[26] = Homo sapiens, Liver cancer cell

SMILES | IC50 [1, 26] [µM] | IC50 [4] [µM] | IC50 [5] [µM] | IC50 [6] [µM] | IC50 [7] [µM] | IC50 [8] [µM] | IC50 [11] [µM] | LD50 [12] [mg/kg] | other results
O=C(O)[C@@H]1[C@H](C(=O)O)[C@H]2CC[C@@H]1O2 [listing 1 of 2 here] | 12 |  |  |  |  |  |  |  | IC50 [2]: 12.5 µM; IC50 [3]: 12.5 µM
O=C1OC[C@@H]2[C@H]1[C@H]1CC[C@@H]2O1 |  | 62.2 | 99.9 | > 200 | > 200 | 112 |  |  | 
C[C@@]12C(=O)N(c3nc4ccc(OC(F)(F)F)cc4s3)C(=O)[C@]1(C)[C@H]1CC[C@@H]2O1 [CANTHARIDIMIDE] | 6.5 |  |  |  |  |  |  |  | IC50 [9]: 15.8 µM; IC50 [10]: > 12.5 µg/mL
C[C@]1(C(=O)O)[C@@H]2CC[C@@H](O2)[C@@]1(C)C(=O)O | > 50 | 0.56 | 0.05 | 218 | 103 | 79.2 | > 1000 | 1.8 | IC50 [13]: > 50 µM; IC50 [14]: > 50 µM
C[C@@]12COC(=O)[C@]1(C)[C@H]1CC[C@@H]2O1 |  | > 200 | > 200 | > 200 | > 200 | > 200 |  |  | 
O=C(O)[C@@H]1[C@H](C(=O)O)[C@H]2CC[C@@H]1O2 [listing 2 of 2 here] |  |  |  |  |  |  |  |  | IC50 ([1]; liver cancer cell): 15 µM; IC50 [15]: 15.4 µM
O=C1OC(=O)C2C3CCC(O3)C12 (stereo not given) [DEMETHYL-CANTHARIDIN] | > 15 | 1.98 | 0.37 | 213 | 15.7 | 69.5 |  | 4 | IC50 [16]: > 15 µM; IC50 [13]: > 15 µM; IC50 [14]: > 15 µM
C[C@@]12C(=O)OC(=O)[C@@H]1[C@H]1CC[C@@H]2O1 |  | 0.66 | 0.12 |  |  |  | > 1000 |  | IC50 [17]: < 1 µM
O=C(O)[C@@H]1[C@H](C(=O)O)[C@H]2CC[C@@H]1O2 [ENDOTHALL] |  | 5 | 0.97 |  |  |  | > 1000 | 14 | IC50 [17]: > 0.9 µM
C[C@@]12C(=O)OC(=O)[C@]1(C)[C@H]1CC[C@@H]2O1 [CANTHARIDIN] | 2 | 0.47 | 0.04 | 19.1 | 2.7 | 2.7 | > 1000 | 1 | IC50 [16]: 2 µM; IC50 [18]: 2 µM; IC50 [13]: 2 µM; IC50 [14]: 2 µM; IC50 [10]: 6.5 µg/mL (≈ 33.1 µM)
CN1C(=O)[C@@]2(C)[C@@H]3CC[C@@H](O3)[C@@]2(C)C1=O |  |  |  |  |  |  |  |  | IC50 [19]: > 2000 µM
O=C(NCc1ccc(-c2ccccc2)cc1)C(CNC(=O)[C@H]1[C@@H](C(=O)O)[C@@H]2CC[C@H]1O2)Cc1ccco1 (stereo not given in full) |  |  |  |  |  |  |  |  | IC50 [16]: 0.015 µM; IC50 [20]: 0.015 µM; IC50 [21]: 0.027 µM; IC50 [22]: 0.045 µM; IC50 [23]: 0.026 µM; IC50 [24]: 0.029 µM; IC50 [25]: 0.056 µM
C[C@@]12C(=O)N(c3ncc([N+](=O)[O-])s3)C(=O)[C@]1(C)[C@H]1CC[C@@H]2O1 | < 1 |  |  |  |  |  |  |  | IC50 [19]: 0.4 µM
